Experiment [1] has as its target T1, intracellular domain of human Tie2 (GST fusion protein) (Homo sapiens, UniProt Q02763).
T1 construct: intracellular domain of human Tie2 (amino acids 776-1124); made in house; host or cells: Baculovirus-infected insect cells (Hi5)
The experiment in a line: Tie2 kinase assay (Tie2-TR-FRET). The experiment is classed as biochemical. Conditions: ATP concentration 1 mM, in some cases means of several independent determinations. The method in brief: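 High ATP (1 mM final) with 1 μM biotin-peptide substrate; reaction 60 min at 22 °C after 15 min compound pre-binding to GST-Tie2 (aa 776-1124) in HEPES pH 7 with Mg/Mn. Phosphopeptide detected by TR-FRET emission ratio 665/620 nm. IC50 from 4-parameter fit over 20 μM to 0.073 nM, duplicates.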

Another experiment deals with T2, endogenous Tie2 receptor (Homo sapiens, UniProt Q02763).
T2 construct: the endogenous Tie2 receptor; host or cells: HUVEC (human umbilical vein endothelial cells)
Nature of the experiment: Tie2-pTyr-ELISA: autophosphorylation of endogenous Tie2 receptor in HUVEC. The experiment is classed as cell-based. As to conditions: autophosphorylation elevated by sodium orthovanadate (4 mM), Tie2/phosphotyrosine sandwich ELISA, from 2-7 independent measurements. On the procedure:
The cellular activity of the compounds according to the invention as Tie2 kinase inhibitors was determined in human endothelial cells (HUVEC) by measuring the inhibition of the autophosphorylation, elevated by treatment with sodium orthovanadate, of the endogenous Tie2 receptor by means of a Tie2/phosphotyrosine sandwich ELISA.
Human endothelial cells (human umbilical vein endothelial cells, HUVEC) were obtained from Cellsystems (FC-0003), cultured in Vasculife VEGF complete medium (Cellsystems, LL-1020) with 2% foetal calf serum (FCS) at 37° C./5% CO2 and used for Tie2-ELISA measurements up to passage 8.
HUVEC were plated in a culture volume of 100 μl of Vasculife VEGF complete medium at a cell density of 30 000 cells per well in transparent collagen-coated 96-well cell culture plates (Falcon, #353075) and incubated in an incubation cabinet at 37° C./5% CO2 overnight. The test substances dissolved in DMSO were used to prepare in each case one dilution series in Vasculife VEGF low-serum medium [basal medium with LifeFactors (Cellsystems, LM-0002), without FCS, with 0.1% BSA] without sodium orthovanadate and one dilution series in Vasculife VEGF low-serum-medium with 8 mM sodium orthovanadate in the desired concentrations in the range from 10 pM to 10 μM, the final DMSO concentration being 1%. After removal of the complete medium, 100 μl per well of the dilute substances in low-serum medium without sodium orthovanadate were pipetted onto the cells, and the plates were incubated in an incubation cabinet at 37° C./5% CO2 for 10 min. A further 100 μl of the same substance dilution in low-serum medium with 8 mM sodium orthovanadate were then pipetted into the respective well and the cells were incubated in a volume of now 200 μl in the presence of 4 mM sodium orthovanadate at the desired substance concentration in an incubation cabinet at 37° C./5% CO2 for a further 20 min. The cell supernatant of the plates was then removed and the cells were washed once with 250 μl per well of cold PBS which contained 4 mM sodium orthovanadate. 120 μl of Duschl lysis buffer [50 mM HEPES pH 7.2, 150 mM NaCl, 1 mM MgCl2, 10% glycerol, 1.5% Triton X-100, 4 mM sodium orthovanadate, 250 μl S-PIC phosphatase inhibitor cocktail 2 (Sigma, P5726) and 1 tablet of Complete proteinase inhibitor mixture (Roche, #1836145) per 10 ml] were then added to the cells in each well. The plates were shaken briefly and then incubated on ice for 20 min, and the lysates in the cell culture plates were then frozen at −80° C. for at least 30 min.
For measuring the autophosphorylation of the endogenous Tie2 receptor in the cell lysates prepared, a self-prepared anti-Tie2 antibody directed against the N-terminus of the Tie-2 receptor (1.09 mg/ml) and an HRP-coupled anti-phosphotyrosine antibody (Sigma, A4595, clone pY-20) were used. White 96-well ELISA plates (Lumitrac600, Greiner, #655074) were incubated with 100 μl per well of a 1:1000 dilution of the anti-Tie2 antibody in coating buffer [15 mM Na2CO3, 35 mM NaHCO3, pH 9.6] with shaking at 4° C. overnight. The coated ELISA plates were washed three times with 250 μl PBST buffer [0.1% Tween-20 in PBS], the wells were blocked with 250 μl 3% BSA in PBST buffer with shaking at RT for 1-6 h and washed three more times with 250 μl PBST buffer. From the cell lysate plates thawed in the fridge, in each case 100 μl of lysate were transferred into the coated wells of the ELISA plates, and the plates were incubated with shaking at 4° C. overnight. The plates were washed three times with in each case 250 μl of PBST buffer, and 100 μl of a 1:5000 dilution of the anti-phosphotyrosine HRP antibody in 3% Prionex (Calbiochem, #529600) in PBST were then pipetted into each well and the plates were incubated with shaking and protected from light at 4° C. overnight. […]

T1 sequence (Q02763 776-1124): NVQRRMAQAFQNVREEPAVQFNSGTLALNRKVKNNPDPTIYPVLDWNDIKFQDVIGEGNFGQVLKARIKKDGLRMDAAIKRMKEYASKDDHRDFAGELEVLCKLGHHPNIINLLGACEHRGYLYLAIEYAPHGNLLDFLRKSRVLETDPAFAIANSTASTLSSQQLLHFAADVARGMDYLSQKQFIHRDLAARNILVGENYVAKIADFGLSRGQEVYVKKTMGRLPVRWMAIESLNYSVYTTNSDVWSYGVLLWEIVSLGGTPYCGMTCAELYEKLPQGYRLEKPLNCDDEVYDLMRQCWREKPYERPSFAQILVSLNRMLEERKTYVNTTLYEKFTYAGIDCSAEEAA
T2 sequence (Q02763 23-1124): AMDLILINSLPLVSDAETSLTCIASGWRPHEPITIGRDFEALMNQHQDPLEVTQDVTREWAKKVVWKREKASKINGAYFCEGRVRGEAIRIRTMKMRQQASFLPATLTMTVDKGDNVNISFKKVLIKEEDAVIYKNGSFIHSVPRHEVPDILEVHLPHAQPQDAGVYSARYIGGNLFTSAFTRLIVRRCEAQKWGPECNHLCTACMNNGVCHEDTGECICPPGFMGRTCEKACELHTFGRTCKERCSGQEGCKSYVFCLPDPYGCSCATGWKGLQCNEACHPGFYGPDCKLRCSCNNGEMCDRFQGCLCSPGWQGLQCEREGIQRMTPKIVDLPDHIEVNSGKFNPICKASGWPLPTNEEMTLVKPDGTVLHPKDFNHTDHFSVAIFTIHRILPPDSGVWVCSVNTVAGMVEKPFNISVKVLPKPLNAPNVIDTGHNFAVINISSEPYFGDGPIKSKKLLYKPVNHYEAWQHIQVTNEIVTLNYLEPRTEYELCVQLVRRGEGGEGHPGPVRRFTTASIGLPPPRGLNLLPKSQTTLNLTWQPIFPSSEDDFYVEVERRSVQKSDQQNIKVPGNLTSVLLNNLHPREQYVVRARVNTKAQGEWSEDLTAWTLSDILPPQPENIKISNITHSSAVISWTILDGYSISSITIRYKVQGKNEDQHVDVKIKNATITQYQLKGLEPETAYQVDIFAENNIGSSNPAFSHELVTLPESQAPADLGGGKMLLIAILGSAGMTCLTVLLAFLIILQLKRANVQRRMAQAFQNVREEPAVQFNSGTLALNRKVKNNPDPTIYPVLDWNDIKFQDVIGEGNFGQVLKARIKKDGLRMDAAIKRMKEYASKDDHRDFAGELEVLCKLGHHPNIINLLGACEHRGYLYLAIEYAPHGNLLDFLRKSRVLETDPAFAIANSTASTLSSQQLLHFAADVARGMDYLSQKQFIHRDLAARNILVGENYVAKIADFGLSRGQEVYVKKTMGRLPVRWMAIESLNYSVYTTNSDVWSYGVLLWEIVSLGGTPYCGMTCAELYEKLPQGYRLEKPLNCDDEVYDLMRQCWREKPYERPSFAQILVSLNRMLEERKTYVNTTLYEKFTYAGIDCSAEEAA

For orientation: IC50 means the concentration that gives 50% inhibition. Read a low IC50 as greater potency. Take `Cc1ccc(NC(=O)c2cc(F)cc(S(F)(F)(F)(F)F)c2)cc1-n1ccn2nc(-c3cccnc3)cc12` [Example 88, 3-Fluoro-N-{4-methyl-3-[6-(pyridin-3-yl)-1H-imidazo[1,2-b]pyrazol-1-yl]phenyl}-5-(pentafluoro-λ^6-sulphanyl)benzamide]: the IC50 in experiment [1] was 23 nM; on endogenous Tie2 receptor, 41 nM.

In the case of `Cc1cc(NC(=O)c2cc(C#N)cc(S(F)(F)(F)(F)F)c2)cc(-n2ccn3nc(-c4cccnc4)cc23)c1C` [Example 102, 3-Cyano-N-{3,4-dimethyl-5-[6-(pyridin-3-yl)-1H-imidazo[1,2-b]pyrazol-1-yl]phenyl}-5-(pentafluoro-λ^6-sulphanyl)benzamide], the IC50 in experiment [1] worked out at 19 nM; on endogenous Tie2 receptor, 18 nM.

As for `Cc1cc(C)c(-n2ccn3nc(-c4cccnc4)cc23)cc1NC(=O)c1cc(F)cc(S(F)(F)(F)(F)F)c1` [Example 107, N-{2,4-Dimethyl-5-[6-(pyridin-3-yl)-1H-imidazo[1,2-b]pyrazol-1-yl]phenyl}-3-fluoro-5-(pentafluoro-λ^6-sulphanyl)benzamide], the IC50 in experiment [1] stood at 0.6 nM; against endogenous Tie2 receptor, 0.9 nM.

With `COCc1cc(C(=O)Nc2cc(-n3ccn4nc(-c5cccnc5)cc34)c(C)cc2C)cc(S(F)(F)(F)(F)F)c1` [Example 112, N-{2,4-Dimethyl-5-[6-(pyridin-3-yl)-1H-imidazo[1,2-b]pyrazol-1-yl]phenyl}-3-(methoxymethyl)-5-(pentafluoro-λ^6-sulphanyl)benzamide], the IC50 in experiment [1] worked out at 0.7 nM; against endogenous Tie2 receptor, 1.4 nM.

Regarding `Cc1cc(C)c(-n2ccn3nc(-c4cccnc4)cc23)cc1NC(=O)c1cc(C#N)nc(C(C)(C)C)c1` [Example 116, 2-tert-Butyl-6-cyano-N-{2,4-dimethyl-5-[6-(pyridin-3-yl)-1H-imidazo[1,2-b]pyrazol-1-yl]phenyl}-isonicotinamide], the IC50 came to 0.5 nM in experiment [1] and 2.9 nM at endogenous Tie2 receptor.

With `Cc1cc(Cl)c(-n2ccn3nc(-c4cccnc4)cc23)cc1NC(=O)c1cccc(S(F)(F)(F)(F)F)c1` [Example 157, N-{4-Chloro-2-methyl-5-[6-(pyridin-3-yl)-1H-imidazo[1,2-b]pyrazol-1-yl]phenyl}-3-(pentafluoro-λ^6-sulphanyl)benzamide], the IC50 in experiment [1] amounted to 0.5 nM; at endogenous Tie2 receptor, 1 nM.

`Cc1ccc(NC(=O)c2cc(C#N)cc(S(F)(F)(F)(F)F)c2)cc1-n1ccn2nc(-c3cnccn3)cc12` [Example 162, 3-Cyano-N-{4-methyl-3-[6-(pyrazin-2-yl)-1H-imidazo[1,2-b]pyrazol-1-yl]phenyl}-5-(pentafluoro-λ^6-sulphanyl)benzamide]: the figures for the IC50 (in experiment [1]; at endogenous Tie2 receptor) were 28 nM and 8.9 nM, respectively.
